Measurements reported in article PMC6954543, “A window-of-opportunity trial of the CXCR1/2 inhibitor reparixin in operable HER-2-negative breast cancer” (Breast Cancer Research : BCR, 2020).

What was measured:
[1] = Safety of oral reparixin in window-of-opportunity trial (TEAEs, ANC); assay type: in vivo, human
Excerpt: In this single-arm, monotherapy trial (NCT01861054), female patients aged ≥ 18 years with HER-2-negative operable breast cancer (with a clinical diameter of ≥ 2 cm) that were not candidates for neoadjuvant therapy were recruited. The protocol was amended later to allow inclusion of patients with HER-2-negative operable breast cancer with a clinical diameter of > 1 cm, not eligible for neoadjuvant treatment. Patients needed to have previously untreated, histologically proven (per local investigator assessment) ER+ and/or PgR+ or ER−/PgR− breast cancer (i.e., triple-negative BC (TNBC)) with adequate organ function.
Patients were requested to take reparixin, an investigational orally available CXCR1/2 inhibitor, as two immediate-release 500-mg oral tablets every 6 to 8 h (every 8 h on the days of PK sampling) with food (a light meal or snack), for 21 consecutive days before surgery.
Descriptive statistics were used to summarize safety variables (i.e., adverse events, physical examination, vital signs, ECG, laboratory data, concomitant medications).

[2] = Pharmacokinetics of single-agent oral reparixin in plasma; assay type: in vivo, human
Experimental: Samples for pharmacokinetics (PK) were collected at selected sites in consenting patients. Venous blood samples (6 mL) were collected from a forearm vein at times 0.0, 0.25, 0.5, 1.0, 2.0, 4.0, 6.0, and 8.0 h following reparixin administration on days 1 and 21. The blood samples were immediately centrifuged at 4 °C, 1200 relative centrifugal force (RCF), for 10 min, and the plasma collected. Each plasma sample was divided into 2 aliquots and stored in 2 pre-labeled polypropylene screw-capped tubes (about 2 mL each) at − 20 °C until analysis. The analysis was performed at the Dompé Analytical Development Laboratories in L’Aquila, Italy.

[3] = tested on: ALDH1, CD24 and CD44 transcripts; test: CSC markers in core biopsies by RT-PCR; assay type: in vivo, human; settings: 14 patients
Experimental: Core biopsy samples were placed in RNAlater, suspended in 700 μL of TRIzol® LS Reagent (Invitrogen) and homogenized using Bullet Blender (Next Advance Inc.). Next, RNA was extracted using the miRNeasy mini kit (Qiagen) and processed with the QIACube (Qiagen) automated low-throughput sample prep system. Thereafter, the isolated RNAs were reverse transcribed to cDNA (High Capacity cDNA Reverse Transcription Kit, ABI) and subsequently underwent quantitative RT-PCR (qRT-PCR) using 7900HT Fast Real-Time PCR System (ABI) to detect transcripts of markers associated with CSC (ALDH1, CD44, CD24, Akt, and PI3K), EMT (TWIST1, FOXC2, SNAIL1, SNAIL2, TG2, and ZEB1), epithelial cells (KRT19 and EpCAM), and leukocytes (CD45). We used average delta Ct (dCT) < 2 as a cutoff to determine the relative gene expression level. Since normal tissue was not available to act as the normalizer, we used GAPDH as the endogenous control (dCT = CTtarget − CTendogenous control).

CXCR1+ cells = test: CXCR1+ cell evaluation in core biopsy samples by flow cytometry; assay type: in vivo, human
Excerpt: Patients underwent core biopsies at baseline (day − 14 to 0) and at the completion of therapy (day 21). Three to five ≥ 18-gage needle biopsies were taken to measure the changes in CSC populations and pathway markers. If not performed at the completion of treatment, a core biopsy was taken on the day of surgery by the same technique. A sample of the surgically resected tumor tissue was also taken. Additional analyses were directed to determine CXCR1 (PerCP/Cy5.5 mouse anti-human CD181 (CXCR1; BioLegend, San Diego, CA) and cell lineages using the following antibodies: APC mouse anti-human CD44 (BD Bioscience, San Jose, CA; catalog #559942), PE-Cy7 mouse anti-human CD24 (#561646), PE mouse anti-human CD2 (#555327), PE mouse anti-human CD31 (#555446), PE mouse anti-human CD3 (#555333), PE mouse anti-human CD18 (#555924), PE mouse anti-human CD16 (#555407), PE mouse anti-human CD19 (#555413), and PE mouse anti-human CD45 (#555483).

CXCR1 = CXCR1 expression on tumor cells by IHC; assay type: in vivo, human; settings: largest proportion at levels 4 and 3 at baseline; level 3 and 2 or lower at day 21
Experimental: (§1) All IHC analyses and scoring for extent (0 to 4) and intensity (0 to 3) were performed at the Houston Memorial Hermann Pathology laboratory as previously described. After antigen retrieval (Tris-Cl, pH 9.0), paraffin-embedded sections of sample tumors were incubated for 1 h at room temperature with the following antibodies: anti-human CXCR1 (rabbit polyclonal to CXCR1 - C-terminal, ab137351; Abcam, Cambridge, MA), anti-human CD31 (clone JC70A, #IS610; Dako, Glostrup, Denmark), anti-human p62 (clone SQSTM1/p62, # 5114; Cell Signaling), anti-human AKT (rabbit polyclonal to pan-AKT, # ab8805; Abcam), anti-human FAK (clone pY861, #44-626G; Invitrogen, Qiagen, Carlsbad, CA), anti-human phospho-AKT (clone Ser473 (D9E), #4060; Cell Signaling), anti-human phospho-FAK (clone Y397, #ab4803; Abcam), and anti-human LC3B (clone D11, #3868; Cell Signaling). For the evaluation of extent, the following semi-quantitative score method (0 to 4) was used: 0, no positive cells; 1, 1–25%; 2, 26–50%; 3, 51–75%; and 4, 76–100%.

CD31 = CD31 staining of core biopsies by IHC; assay type: in vivo, human; settings: day 21 (16/20 at baseline)
Experimental: as §1

[4] = tested on: metastatic HER-2-negative BC; design: method as in PMID 28539464; settings: in combination with weekly paclitaxel, cited from earlier work
[5] = tested on: human BC cell lines and xenografts; design: method as in PMID 20051626; settings: single agent and in combination with chemotherapy; cited from earlier work
CXCR1/2+ cells = tested on: CXCR1/2+ cells; design: method as in PMID 22996693; settings: preclinical models; cited from earlier work
[6] = female, human, in vivo, po, 1000 mg

Compound: CC(C)Cc1ccc([C@@H](C)C(=O)NS(C)(=O)=O)cc1 [reparixin]
- patients who experienced ≥ 1 TEAE related to the study drug ([1]; 1000 mg t.i.d. oral, 21 days): Ten of 20
- TEAEs leading to discontinuation ([1]; 1000 mg t.i.d. oral, 21 days, 20 patients): no treatment-emergent adverse events (TEAEs) leading to discontinuation
- delay of surgery due to study treatment ([1]; 20 patients): No patients had to delay surgery
- serious adverse reactions ([1]; 20 patients): no serious adverse reactions
- neutropenia / decrease in absolute neutrophil count (ANC) ([1]; ANC at weekly intervals, 10/20 patients): neither neutropenia of any grade nor any sustained decrease in ANC
- grade of TEAEs related to the study drug ([1]; all related TEAEs): ≤ 2 grade
- TEAE grade 1 fatigue ([1]; of 20 patients): 8 patients
- TEAE nausea ([1]; of 20 patients): 5 patients
- TEAE related to study drug: fatigue ([1]; of 20 patients): 4 patients
- TEAE related to study drug: flatulence ([1]; of 20 patients): 2 patients
- TEAE related to study drug: headache ([1]; of 20 patients): 2 patients
- TEAE related to study drug: nausea ([1]; of 20 patients): 2 patients
- serious TEAE ([1]; of 20 patients, unrelated to the study drug): 1 patient
- Tmax [2, 6]: 1 h
- half-life [2, 6]: ~2 h
- bioavailability following oral administration ([2]; human, in vivo, po): high bioavailability
- systemic exposure (Cmax and AUClast), change from day 1 to day 21 ([2]; human, in vivo, po, 1000 mg): did not change
- accumulation upon multiple dosing ([2]; oral 1000 mg t.i.d. for 21 days): no accumulation
- patients negative for CSC at both baseline and day 21 [3]: 6 patients
- patients with CSC (transcripts for CD44 but not CD24) at both baseline and day 21 [3]: Five
- ALDH1 transcripts at day 21 ([3]; 1/14 expressed ALDH1 at baseline): all patients were negative
- patients with CXCR1+ tumor cells decreased at day 21 (CXCR1+ cells): 7/13
- patients with all viable CXCR1+ cells reduced at day 21 vs baseline (CXCR1+ cells): 6/13
- patients with parallel decrease in both CXCR1+ cell populations (CXCR1+ cells): 4/13
- CXCR1 positivity, extent and intensity, change at day 21 (CXCR1): decrease
- patients with value of 0 for CD31, extent and intensity (CD31): 11/15
- long-lasting CR ([4]; 27 evaluable patients): 2
- response rate ([4]; 27 evaluable patients): 30%
- gastrointestinal disorders, share of all TEAEs ([4]; all grade ≤ 2): 39%
- Grade 3 treatment-related TEAE, share of all reports [4]: 2.7%
- metastatic spread of human BC cells and CSC (ALDH+ and CD24−/CD44+) content [5]: reduced
- recruitment of CXCR1/2+ cells from the bloodstream to visceral sites (CXCR1/2+ cells): reduce
